System: RQR8+ cells expressing TRBC2 CAR alone
Assay: Tacrolimus effect on proliferation of CAR-T cells in 4 day co-culture
Assay type: cell-based
Conditions: 20 ng/ml; 4 days co-culture with TRBC2+ targets
Description: In a similar study, cells transduced to express either TRBC2 CAR alone or TRBC2 CAR in combination with a calcineurin mutant (CnB30) were co-cultured for 4 days with TRBC2+ positive targets in the presence or absence of 20 ng/ml of Tacrolimus. […] This was true for cells expressing TRBC2 CAR alone or co-expressing TRBC2 CAR in combination with the calcineurin mutant.

C=CC[C@@H]1/C=C(\C)C[C@H](C)C[C@H](OC)[C@H]2O[C@@](O)(C(=O)C(=O)N3CCCC[C@H]3C(=O)O[C@H](/C(C)=C/[C@@H]3CC[C@@H](O)[C@H](OC)C3)[C@H](C)[C@@H](O)CC1=O)[C@H](C)C[C@@H]2OC [Tacrolimus, tacrolimus]
effect on proliferation of cells expressing TRBC2 CAR alone: inhibits proliferation

From US20230338534A1, “METHOD” (AUTOLUS LIMITED, priority 2020, published 2023)
